# In patent US9512142B2, “Tricyclic triazolic compounds” (LABORATORIOS DEL DR. ESTEVE S.A., priority 2013, dated 2016):
# pKi: −log10 of the molar value. Read-outs that look alike come from different tables or passages of the source.
# Tests used:
# human sigma 1 receptor = target: T1, human sigma 1 receptor (Homo sapiens, UniProt Q99720); test: Human sigma 1 receptor radioligand assay ([3H](+)-pentazocine, transfected HEK-293 membranes); assay type: binding; conditions: 5 nM [3H](+)-pentazocine, transfected HEK-293 membranes, 37° C., 120 minutes; read-out: Ki
# T1 construct: expressed in transfected cells; host or cells: HEK-293
# Protocol: Human Sigma 1 Receptor Radioligand Assay
# The assay was carried out with 7 μg of membrane suspension, 5 nM of [^3H](+)-pentazocine in either absence or presence of either buffer or 10 μM Haloperidol for total and non-specific binding, respectively. Binding buffer contained Tris-HCl 50 mM at pH 8. Plates were incubated at 37° C. for 120 minutes. After the incubation period, the reaction mix was then transferred to MultiScreen HTS, FC plates (Millipore), filtered and plates were washed 3 times with ice-cold 10 mM Tris-HCL (pH7.4). Filters were dried and counted at approximately 40% efficiency in a MicroBeta scintillation counter (Perkin-Elmer) using EcoScint liquid scintillation cocktail.
# Kinetic solubility = assay type: physicochemical; conditions: kinetic from dmso stock, buffered aqueous solution at pH=7.4, 10 μL of 10 mM DMSO solution in 1 mL, stirred 4 hours, supernatant by liquid chromatography, read-out: Kin. Solub.
# Protocol: To a buffered aqueous solution at pH=7.4 (1 mL), a 10 mM DMSO solution of the test compound (10 μL) was added and the mixture stirred for 4 hours. After centrifugation, the compound concentration in the supernatant was determined by liquid chromatography by fitting in a calibration curve of the compound.
# [1] = buffered aqueous solution, pH 7.4, aqueous buffer
# T1 sequence (Q99720 whole entry): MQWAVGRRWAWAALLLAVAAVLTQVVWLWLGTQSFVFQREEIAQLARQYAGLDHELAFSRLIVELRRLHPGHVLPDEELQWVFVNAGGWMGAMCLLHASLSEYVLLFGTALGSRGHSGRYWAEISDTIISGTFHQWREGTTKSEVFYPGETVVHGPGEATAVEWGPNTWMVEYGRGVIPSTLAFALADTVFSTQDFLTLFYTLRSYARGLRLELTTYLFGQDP
Compound,pKi (human sigma 1 receptor),solubility at 4 h (Kinetic solubility; [1]),solubility at 4 h (Kinetic solubility; aqueous buffer)
"Cl.Fc1ccc(CN2C[C@@H]3[C@@H](C2)OCc2c(-c4ccccc4F)nnn23)cn1 [Example 11, (5aR,8aR)-3-(2-fluorophenyl)-7-((6-fluoropyridin-3-yl)methyl)-4,5a,6,7,8,8a-hexahydropyrrolo[3,4-b][1,2,3]triazolo[1,5-d][1,4]oxazine hydrochloride]",6.62,–,> 10 µM
"Cc1occc1CN1C[C@@H]2[C@@H](C1)OCc1c(-c3ccc(F)cc3F)nnn12.Cl [Example 60, (5aR,8aR)-3-(2,4-difluorophenyl)-7-((2-methylfuran-3-yl)methyl)-4,5a,6,7,8,8a-hexahydropyrrolo[3,4-b][1,2,3]triazolo[1,5-d][1,4]oxazine hydrochloride]",6.99,> 10 µM,–
"COc1ccc(-c2nnn3c2CO[C@H]2CN(C4CCOCC4)C[C@@H]23)cn1.Cl [Example 8, (5aS,8aS)-3-(6-methoxypyridin-3-yl)-7-(tetrahydro-2H-pyran-4-yl)-4,5a,6,7,8,8a-hexahydropyrrolo[3,4-b][1,2,3]triazolo[1,5-d][1,4]oxazine hydrochloride]",6.64,–,> 10 µM
"Cl.Cn1nccc1-c1nnn2c1CO[C@@H]1CN(Cc3ccc(F)cc3)C[C@H]12 [Example 66, (5aR,8aR)-7-(4-fluorobenzyl)-3-(1-methyl-1H-pyrazol-5-yl)-4,5a,6,7,8,8a-hexahydropyrrolo[3,4-b][1,2,3]triazolo[1,5-d][1,4]oxazine hydrochloride]",6.86,–,> 10 µM
"Cl.Clc1ccc(-c2nnn3c2CO[C@@H]2CN(C[C@@H]4CCOC4)C[C@H]23)c(Cl)c1 [Example 59, (5aR,8aR)-3-(2,4-dichlorophenyl)-7-(((S)-tetrahydrofuran-3-yl)methyl)-4,5a,6,7,8,8a-hexahydropyrrolo[3,4-b][1,2,3]triazolo[1,5-d][1,4]oxazine hydrochloride]",6.74,> 10 µM,–
"Cl.Fc1ccccc1-c1nnn2c1CO[C@@H]1CN(Cc3ccncc3)C[C@H]12 (racemic) [Example 2, (5aRS,8aRS)-3-(2-fluorophenyl)-7-(pyridin-4-ylmethyl)-4,5a,6,7,8,8a-hexahydropyrrolo[3,4-b][1,2,3]triazolo[1,5-d][1,4]oxazine hydrochloride]",6.50,–,> 10 µM
"COc1ccc(CN2C[C@@H]3[C@@H](C2)OCc2c(-c4ccc(F)cc4Cl)nnn23)cn1.Cl [Example 49, (5aR,8aR)-3-(2-chloro-4-fluorophenyl)-7-((6-methoxypyridin-3-yl)methyl)-4,5a,6,7,8,8a-hexahydropyrrolo[3,4-b][1,2,3]triazolo[1,5-d][1,4]oxazine hydrochloride]",6.95,> 10 µM,–
"Cl.Fc1ccc(-c2nnn3c2CO[C@@H]2CN(Cc4ccc(F)nc4)C[C@H]23)c(Cl)c1 [Example 39, (5aR,8aR)-3-(2-chloro-4-fluorophenyl)-7-((6-fluoropyridin-3-yl)methyl)-4,5a,6,7,8,8a-hexahydropyrrolo[3,4-b][1,2,3]triazolo[1,5-d][1,4]oxazine hydrochloride]",6.78,> 10 µM,–

# Further lines, with some results ahead:
pKi (human sigma 1 receptor),solubility at 4 h (Kinetic solubility; [1]),Compound,solubility at 4 h (Kinetic solubility; aqueous buffer)
7.77,> 10 µM,"Cl.Clc1ccc(-c2nnn3c2CO[C@H]2CN(CCC4CCOCC4)C[C@@H]23)c(Cl)c1 [Example 53, (5aS,8aS)-3-(2,4-dichlorophenyl)-7-(2-(tetrahydro-2H-pyran-4-yl)ethyl)-4,5a,6,7,8,8a-hexahydropyrrolo[3,4-b][1,2,3]triazolo[1,5-d][1,4]oxazine hydrochloride]",–
7.60,> 10 µM,"Cl.Clc1ccc(-c2nnn3c2CO[C@H]2CN(C[C@H]4CCOC4)C[C@@H]23)c(Cl)c1 [Example 58, (5aS,8aS)-3-(2,4-dichlorophenyl)-7-(((R)-tetrahydrofuran-3-yl)methyl)-4,5a,6,7,8,8a-hexahydropyrrolo[3,4-b][1,2,3]triazolo[1,5-d][1,4]oxazine hydrochloride]",–
7.69,> 10 µM,"Cl.Fc1ccc(-c2nnn3c2CO[C@H]2CN(CC4CCOCC4)C[C@@H]23)c(Cl)c1 [Example 43, (5aS,8aS)-3-(2-chloro-4-fluorophenyl)-7-((tetrahydro-2H-pyran-4-yl)methyl)-4,5a,6,7,8,8a-hexahydropyrrolo[3,4-b][1,2,3]triazolo[1,5-d][1,4]oxazine hydrochloride]",–
7.00,> 10 µM,"COc1ccc(CN2C[C@@H]3OCc4c(-c5ccc(F)cc5Cl)nnn4[C@H]3C2)cn1.Cl [Example 50, (5aS,8aS)-3-(2-chloro-4-fluorophenyl)-7-((6-methoxypyridin-3-yl)methyl)-4,5a,6,7,8,8a-hexahydropyrrolo[3,4-b][1,2,3]triazolo[1,5-d][1,4]oxazine hydrochloride]",–
7.57,> 10 µM,"Cl.Fc1ccc(-c2nnn3c2CO[C@@H]2CN(CCC4CCOCC4)C[C@H]23)c(Cl)c1 [Example 47, (5aR,8aR)-3-(2-chloro-4-fluorophenyl)-7-(2-(tetrahydro-2H-pyran-4-yl)ethyl)-4,5a,6,7,8,8a-hexahydropyrrolo[3,4-b][1,2,3]triazolo[1,5-d][1,4]oxazine hydrochloride]",–
7.38,> 10 µM,"Cc1cc(CN2C[C@@H]3[C@@H](C2)OCc2c(-c4ccc(F)cc4F)nnn23)c(C)o1.Cl [Example 23, (5aR,8aR)-3-(2,4-difluorophenyl)-7-((2,5-dimethylfuran-3-yl)methyl)-4,5a,6,7,8,8a-hexahydropyrrolo[3,4-b][1,2,3]triazolo[1,5-d][1,4]oxazine hydrochloride]",–
7.43,> 10 µM,"Cl.c1ccc(CN2C[C@@H]3[C@@H](C2)OCc2c(-c4ccccn4)nnn23)cc1 [Example 32, (5aR,8aR)-7-benzyl-3-(pyridin-2-yl)-4,5a,6,7,8,8a-hexahydropyrrolo[3,4-b][1,2,3]triazolo[1,5-d][1,4]oxazine hydrochloride]",–
